Source: patent US20180071268A1, “COMPOSITIONS AND METHODS FOR TREATING MICROBIOTA-RELATED PSYCHOTROPIC CONDITIONS AND DISEASES” (priority 2013, published 2018)

Key:
Format in all cases: in vivo, human
ASD = assay: Treatment of person with ASD, chronic constipation and abdominal discomfort with oral Vancomycin (case report)
Procedure: A patient was brought by their parent for consultation. They had been suffering from ASD since early childhood but also had chronic constipation and abdominal discomfort. The treatment was focussed on the constipation problem as this was the major component of their complaints when interviewed. They were commenced on to 50 mg Vancomycin twice daily for the first week increasing to 250 mg 3 times daily as an oral dose which is not absorbed. […] However they also noticed a change in behaviour of the child. They were much calmer, with their low vocabulary and inability to complain formally, they were no longer screaming and vocalising their pain using repetitive movements. […] This is both with verbal and non-verbal communication.

[1] = tested on: Autistic Spectrum Disorder(ASD); assay: Treatment of child with Autistic Spectrum Disorder with Aztreonam, then added Vancomycin (case report); conditions: Aztreonam 50 mg 3 times daily; about two weeks after starting
Procedure: A child who was diagnosed with development of Autistic Spectrum Disorder(ASD) with change in bowel habit, withdrawal from ‘society’ and loss of vocabulary/words/vocalizing ability as well as reduced socialisation and eye contact was treated with Aztreonam 50 mg 3 times daily.

OCD = assay: Exemplary treatment of OCD in adult with rifaximin (case report)
Procedure: A married office worker had suffered with OCD since childhood. Having been treated with various pharmacologic agents through life their behaviour patterns were largely controlled except for one behaviour of needing to check gas outlets and powerpoints every night in case their children were hurt or damaged overnight by some unforseen accident. This continued to be a ‘sleep-draining’ issue not controllable by Zoloft, anfranil and other drugs.
They were commenced on rifaximin 500 mg capsules twice daily for the first week, then 1 g twice daily thereafter.
They remain on long term rifaximin.

[2] = tested on: Autism Spectrum Disorder (ASD); assay: Treatment of twin sisters with Autism Spectrum Disorder and OCD component with oral Gentamicin, then added Rifaximin (case report); conditions: oral Gentamicin 80 mg 3 times daily in capsules; within three weeks
Procedure: Twin sisters who were diagnosed with Autism Spectrum Disorder (ASD) at different levels of reading capability, writing and comprehension in Grade 3 and 4, together with abdominal cramping and alternating hard/soft defecation changes were started on oral Gentamicin 80 mg 3 times daily in capsules. […] After three weeks Rifaximin was added to the mix of drugs at a dose of 500 mg twice daily and the patients were further observed with a combination of Gentamicin and Rifaximin.

[3] = oral Vancomycin, at four week interview

## CN[C@H](CC(C)C)C(=O)N[C@H]1C(=O)N[C@@H](CC(N)=O)C(=O)N[C@H]2C(=O)N[C@H]3C(=O)N[C@H](C(=O)N[C@H](C(=O)O)c4cc(O)cc(O)c4-c4cc3ccc4O)[C@H](O)c3ccc(c(Cl)c3)Oc3cc2cc(c3O[C@@H]2O[C@H](CO)[C@@H](O)[C@H](O)[C@H]2O[C@H]2C[C@](C)(N)[C@H](O)[C@H](C)O2)Oc2ccc(cc2Cl)[C@H]1O [Vancomycin]
ASD; oral Vancomycin 50 mg twice daily first week increasing to 250 mg 3 times daily, initially
  abdominal discomfort initially after start of treatment: some increase in abdominal discomfort
ASD; oral Vancomycin 750 mg to 1 g, nine months of treatment
  side effects from the medication: without any undue side effects
ASD; oral Vancomycin, after four months
  communication, verbal and non-verbal: better communication between the parents and the child
ASD; [3]
  behaviour of the child: much calmer
  constipation and pain: markedly improved
  repetitive movements: came down quite markedly
ASD; oral Vancomycin, within a few days onwards
  pain: progressively disappeared
ASD; oral Vancomycin, within a few days, before: once every three to four days
  bowel function (evacuation frequency): daily or twice daily and even three times daily evacuation

## C[C@H]1[C@H](NC(=O)/C(=N\OC(C)(C)C(=O)O)c2csc(N)n2)C(=O)N1S(=O)(=O)O [Aztreonam]
[1]
  eye contact: greater eye contact
  loose motions: reduction in the loose motions
  socialisation with the other children: greater socialisation
  word power: no increase in word power

## CO[C@H]1/C=C/O[C@@]2(C)Oc3c(C)c(O)c4c(O)c(c5c(nc6cc(C)ccn65)c4c3C2=O)NC(=O)/C(C)=C\C=C\[C@H](C)[C@H](O)[C@@H](C)[C@@H](O)[C@@H](C)[C@H](OC(C)=O)[C@@H]1C [rifaximin]
OCD; next 3 months of monitoring their behaviour
  persistence of the improvement during monitoring: almost universal
OCD; person, rifaximin 500 mg capsules twice daily first week, then 1 g twice daily
  OCD behaviour: need to check gas outlets and powerpoints every night: absence of the need to check the gas outlets and powerpoints
OCD; person, rifaximin 500 mg twice daily first week, then 1 g twice daily
  time until absence of the checking behaviour was noticed: ≤ 10 days

## Gentamicin
[2]
  episodes of OCD behaviour: marked reduction in the number of episodes of OCD behaviour
